This note sets out measurements from the supplement of paper PMC12317010.

This data set in a line: collision cross section in nitrogen (drift tube, single-field); higher = larger gas-phase ion size.
Where [1] appears, read: ion type: [M+H], ion source: APCI, ion mode: Positive.
Where [2] appears, read: ion type: [M+H], ion source: ESI, ion mode: Positive.
Setting [3] is: ion type: [M+Na], ion source: ESI, ion mode: Positive.
[4] abbreviates: ion type: [M-H], ion source: ESI, ion mode: Negative.
Setting [5] is: ion type: [M+], ion source: APCI, ion mode: Positive.

Structures can show the parent of a compound that is named as a salt.
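Also: chemical standards at 10 µM analysed by drift tube IMS-QTOF MS in about 3.95 torr nitrogen, mean of duplicate injections differing ≤1%, mass error below 10 ppm.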

Regarding `NCCCN(CCO)CCO` [2,2'-[(3-Aminopropyl)imino]diethanol], the “collision cross section in nitrogen” value is on record as 132.7 Å² under setting [1], 133.5 Å² under setting [2] and 135.8 Å² under setting [3].
Regarding `CCOC(=O)O[C@H](C)OC(=O)c1ccc2c(c1)cc(C(=O)NC1CCN(C(C)C)CC1)n2Cc1cc(-c2ccc(Cl)s2)on1` [AVE6324], the “collision cross section in nitrogen” value under setting [1] is reported as 268 Å², the “collision cross section in nitrogen” value under setting [2] was 267.7 Å², the “collision cross section in nitrogen” value under setting [3] is 276.4 Å² and the “collision cross section in nitrogen” value under setting [4] is on record as 269.8 Å².
As for `COc1ccn(C)c(=O)c1C#N` [Ricinine], the “collision cross section in nitrogen” value was 132.2 Å² under setting [1], 132.4 Å² under setting [2] and 143 Å² under setting [3].
`CCN(Cc1cccc(S(=O)(=O)O)c1)c1ccc(C(=C2C=CC(=[N+](CC)Cc3cccc(S(=O)(=O)O)c3)C=C2)c2ccccc2S(=O)(=O)[O-])cc1` [FD&C Blue No. 1]: the “collision cross section in nitrogen” value is, setting by setting: under setting [2], 253.6 Å²; under setting [4], 257.6 Å².
As to `N#CCc1ccc(Cl)cc1` [4-Chlorophenylacetonitrile], the “collision cross section in nitrogen” value under setting [4] was 130.4 Å².
Regarding `C[CH2][Hg][S]c1ccccc1C(=O)O` [Thimerosal], the “collision cross section in nitrogen” value under setting [4] was determined as 146.9 Å².
Consider `CC(=O)N1CCN(c2ccc(OC[C@H]3CO[C@](Cn4ccnc4)(c4ccc(Cl)cc4Cl)O3)cc2)CC1` [Ketoconazole], for which the “collision cross section in nitrogen” value reads like this: under setting [1], 217.3 Å²; under setting [2], 216.8 Å²; under setting [3], 225.3 Å².
`Cc1cc(-c2ccc(N)c(C)c2)ccc1N` [3,3'-Dimethylbenzidine dihydrochloride]: the “collision cross section in nitrogen” value under setting [1] turned out to be 151.9 Å², the “collision cross section in nitrogen” value under setting [2] came out at 166.2 Å² and the “collision cross section in nitrogen” value under setting [5] came to 150.7 Å².
Turning to `COCc1cnc(C2=NC(C)(C(C)C)C(=O)N2)c(C(=O)O)c1` (stereo not given) [Imazamox], the “collision cross section in nitrogen” value is given as 172.2 Å² under setting [1], 172.4 Å² under setting [2], 188.9 Å² under setting [3] and 178.2 Å² under setting [4].
For the compound `CCCCCCCCO[C@@H]1O[C@H](CO)[C@@H](O)[C@H](O)[C@H]1O` [Octyl beta-D-glucopyranoside], the “collision cross section in nitrogen” value stood at 181.2 Å² under setting [3] and 180.1 Å² under setting [4].
Consider `CCN(CC)c1ccccc1` [N,N-Diethylaniline], for which the “collision cross section in nitrogen” value under setting [3] worked out at 132.8 Å².
Regarding `Oc1ccc(I)cc1` [4-Iodophenol], the “collision cross section in nitrogen” value under setting [4] was determined as 124.5 Å².
Consider `CCCCCCCCCCCCCCCCCCOS(=O)(=O)O` [Octadecyl sulfate sodium salt], for which the “collision cross section in nitrogen” value under setting [4] turned out to be 189.8 Å².
On to `CCOC(=O)NNc1nncc2ccccc12` [Todralazine hydrochloride], for which the “collision cross section in nitrogen” value under setting [1] worked out at 152 Å², the “collision cross section in nitrogen” value under setting [2] is 151.8 Å² and the “collision cross section in nitrogen” value under setting [3] amounted to 158.8 Å².
For `O=C(Nc1ccccc1)c1ccccc1O` [Salicylanilide], the “collision cross section in nitrogen” value is, setting by setting: under setting [1], 144.8 Å²; under setting [4], 145.5 Å².
Take `CCC(C)(c1ccc(O)cc1)c1ccc(O)cc1` [Bisphenol B]: the “collision cross section in nitrogen” value under setting [4] is recorded as 165.8 Å².
For the compound `C#CC(C)N(C)C(=O)Nc1ccc(Cl)cc1` (stereo not given) [Buturon], the “collision cross section in nitrogen” value under setting [1] came to 152.2 Å², the “collision cross section in nitrogen” value under setting [2] was found to be 153.7 Å², the “collision cross section in nitrogen” value under setting [3] came to 166.1 Å² and the “collision cross section in nitrogen” value under setting [4] came to 154.6 Å².
As for `Oc1ccc(C2(c3ccc(O)cc3)c3ccccc3-c3ccccc32)cc1` [4,4'-(9H-Fluorene-9,9-diyl)diphenol], the “collision cross section in nitrogen” value under setting [4] is given as 194.8 Å².
For `CCOP(=O)(O)OCC` [Diethyl hydrogen phosphate], the “collision cross section in nitrogen” value under setting [4] worked out at 129.2 Å².
Turning to `C[C@](N)(Cc1ccc(O)c(O)c1)C(=O)O` [Methyldopa sesquihydrate], the “collision cross section in nitrogen” value under setting [2] was 149.6 Å².
In the case of `CN(C)c1ccc(C(=C2C=CC(=[N+](C)C)C=C2)c2ccc(N(C)C)cc2)cc1` [Gentian Violet], the “collision cross section in nitrogen” value reads like this: (ion source: APCI, ion mode: Positive, ion type: [M]+ (permanent cation)) 205 Å²; (ion source: ESI, ion mode: Positive, ion type: [M]+ (permanent cation)) 205.8 Å².
Consider `COc1ccc(N)cc1` [4-Methoxybenzenamine], for which the “collision cross section in nitrogen” value under setting [1] is on record as 120.3 Å² and the “collision cross section in nitrogen” value under setting [2] was determined as 133.2 Å².
Regarding `CNC(=O)Oc1cccc2c1OC(C)(C)O2` [Bendiocarb], under setting [3], the “collision cross section in nitrogen” value came to 157 Å².
In the case of `O=C(c1ccc(O)cc1O)c1ccc(O)cc1O` [2,2',4,4'-Tetrahydroxybenzophenone], the “collision cross section in nitrogen” value under setting [4] turned out to be 152.3 Å².
Take `Nc1ccc(N=Nc2ccc(-c3ccc(N=Nc4c(S(=O)(=O)O)cc5cc(S(=O)(=O)O)c(N=Nc6ccccc6)c(O)c5c4N)cc3)cc2)c(N)c1` [C.I. Direct Black 38]: the “collision cross section in nitrogen” value runs as follows: under setting [2], 311 Å²; under setting [4], 304.4 Å².
Consider `CC(C)(C(=O)c1cccnc1)c1cccnc1` [Metyrapone], for which the “collision cross section in nitrogen” value under setting [2] was found to be 156.2 Å².
Turning to `Nc1cc([N+](=O)[O-])cc(Cl)c1O` [2-Amino-6-chloro-4-nitrophenol], the “collision cross section in nitrogen” value under setting [4] amounted to 130.1 Å².
In the case of `CCOCN(C(=O)CS(=O)(=O)O)c1c(C)cccc1CC` [Acetochlor ESA], the “collision cross section in nitrogen” value under setting [4] is listed as 172.3 Å².
For `O=c1[nH]cc(F)c(=O)[nH]1` [5-Fluorouracil], the “collision cross section in nitrogen” value under setting [4] came to 115.4 Å².
Turning to `C#CC(C)(C)NC(=O)c1cc(Cl)cc(Cl)c1` [Propyzamide], the “collision cross section in nitrogen” value under setting [1] is recorded as 157.9 Å² and the “collision cross section in nitrogen” value under setting [4] came to 157.3 Å².
As for `CCCCC(CC)C(=O)O` (stereo not given) [Barium bis(2-ethylhexanoate)], the “collision cross section in nitrogen” value under setting [4] was 137.4 Å².
In the case of `CCCCCCCCCCCCCC(=O)OCCCC` [Butyl myristate], the “collision cross section in nitrogen” value under setting [4] is 177.6 Å².
`CCN(CCC#N)c1ccc(N=Nc2c(Cl)cc([N+](=O)[O-])cc2Cl)cc1` [C.I. Disperse Orange 37]: the “collision cross section in nitrogen” value runs as follows: under setting [1], 197.8 Å²; under setting [2], 197.9 Å².
Take `I` [Potassium iodide]: the “collision cross section in nitrogen” value under setting [4] is 92.6 Å².
In the case of `C=CCc1ccc(OC(=O)Cc2ccccc2)c(OC)c1` [Eugenyl phenylacetate], the “collision cross section in nitrogen” value under setting [3] came to 175.7 Å².
As to `O=c1n(CCCN2CCN(c3cccc(Cl)c3)CC2)nc2ccccn12` [Trazodone hydrochloride], the “collision cross section in nitrogen” value by setting is: under setting [1], 192.5 Å²; under setting [2], 192 Å²; under setting [3], 195.7 Å².
On to `COC(=O)Nc1nc2cc(S(=O)c3ccccc3)ccc2[nH]1` (stereo not given) [Oxfendazole], for which the “collision cross section in nitrogen” value under setting [1] is 179 Å², the “collision cross section in nitrogen” value under setting [2] worked out at 178.2 Å², the “collision cross section in nitrogen” value under setting [3] came to 191.4 Å² and the “collision cross section in nitrogen” value under setting [4] worked out at 177 Å².
With `Cc1[nH]nc2c1N=C(c1ccccc1Cl)c1cc([N+](=O)[O-])ccc1N2`, the “collision cross section in nitrogen” value stood at 180.2 Å² under setting [1], 180 Å² under setting [2], 180.3 Å² under setting [5] and 181.1 Å² under setting [4].
For the compound `Cc1ccc(N(C)C)cc1` [N,N,4-Trimethylaniline], under setting [3], the “collision cross section in nitrogen” value is 128.2 Å².
Turning to `CO[C@H]1/C=C/O[C@@]2(C)Oc3c(C)c(O)c4c(O)c(c(/C=N/N5CCN(C)CC5)c(O)c4c3C2=O)NC(=O)/C(C)=C\C=C\[C@H](C)[C@H](O)[C@@H](C)[C@@H](O)[C@@H](C)[C@H](OC(C)=O)[C@@H]1C` [Rifampicin], the “collision cross section in nitrogen” value was 282.3 Å² under setting [2] and 279 Å² under setting [3].
With `CCOP(=O)(CN(CCO)CCO)OCC` [Diethyl (N,N-bis(2-hydroxyethyl)amino)methanephosphonate], the “collision cross section in nitrogen” value under setting [1] stood at 153.5 Å², the “collision cross section in nitrogen” value under setting [2] was 153.9 Å², the “collision cross section in nitrogen” value under setting [3] is recorded as 156.5 Å² and the “collision cross section in nitrogen” value under setting [4] amounted to 157.5 Å².
On to `CCOC(=O)C(C#N)=C(c1ccccc1)c1ccccc1` [Ethyl 2-cyano-3,3-diphenylacrylate], for which the “collision cross section in nitrogen” value under setting [3] was 180.6 Å².
Take `C=COCCOCCOCCOC=C` [3,6,9,12-Tetraoxatetradeca-1,13-diene]: the “collision cross section in nitrogen” value under setting [3] is recorded as 143.4 Å².
Turning to `CN(C)NC(=O)CCC(=O)O` [Daminozide], the “collision cross section in nitrogen” value by setting is: under setting [3], 142.5 Å²; under setting [4], 135.2 Å².
As to `O=[PH]1Oc2ccccc2-c2ccccc21` (stereo not given) [6H-Dibenzo[c,e][1,2]oxaphosphinine 6-oxide], the “collision cross section in nitrogen” value is 146.1 Å² under setting [2] and 145.8 Å² under setting [4].
Turning to `CS(=O)(=O)OCCOS(C)(=O)=O` [Ethylene dimethanesulfonate], the “collision cross section in nitrogen” value under setting [3] was 144.8 Å².
With `Cc1ccccc1S(=O)(=O)O` [Sodium 2-methylbenzenesulfonate], the “collision cross section in nitrogen” value under setting [4] is 131.7 Å².
On to `CN(CCCC(O)c1cccnc1)N=O` (stereo not given) [4-(Methylnitrosamino)-1-(3-pyridyl)-1-butanol], for which the “collision cross section in nitrogen” value is on record as 146.4 Å² under setting [1], 146.4 Å² under setting [2] and 152.5 Å² under setting [3].
In the case of `Cc1ccc(C(=O)c2cc(O)c(O)c([N+](=O)[O-])c2)cc1` [Tolcapone], the “collision cross section in nitrogen” value under setting [4] was 162.8 Å².
Take `CCCCCOC(=O)c1ccccc1C(=O)OCCCCC` [Dipentyl phthalate]: the “collision cross section in nitrogen” value under setting [3] is recorded as 193.4 Å².
For `C[C@@H]1CCN(C(=O)[C@H](CCCNC(=N)N)NS(=O)(=O)c2cccc3c2NC[C@H](C)C3)[C@@H](C(=O)O)C1` [Argatroban monohydrate], the “collision cross section in nitrogen” value is, setting by setting: under setting [2], 217 Å²; under setting [3], 221.7 Å²; under setting [4], 207.8 Å².
Consider `CCCOC(=O)CCCCC(=O)OCCC` [Dipropyl hexanedioate], for which, under setting [3], the “collision cross section in nitrogen” value is on record as 168.6 Å².
With `NC(=O)c1ccc(N)cc1` [4-Aminobenzamide], the “collision cross section in nitrogen” value by setting is: under setting [1], 126.4 Å²; under setting [2], 126.5 Å².
Taken in the same sequence, the figures for `c1ccc(CNCc2ccccc2)cc1` [Dibenzylamine] were 150.8 Å² and 149.6 Å².
With `Cc1cc(F)ccc1-c1cc(N2CC[C@@H](O)[C@H]2CO)ncc1N(C)C(=O)C(C)(C)c1cc(C(F)(F)F)cc(C(F)(F)F)c1`, the “collision cross section in nitrogen” value under setting [1] is recorded as 245.7 Å², the “collision cross section in nitrogen” value under setting [2] is 244.6 Å², the “collision cross section in nitrogen” value under setting [3] was found to be 246.4 Å² and the “collision cross section in nitrogen” value under setting [4] was determined as 232.7 Å².
